Columns and labels:
human CYP11B2 enzyme = target: T1, human CYP11B2 enzyme (Homo sapiens, UniProt P19099); experiment: Enzyme inhibition activity assay in G402 cells stably expressing human CYP11B2 (aldosterone production from 11-DOC, LC/MS); type: cell-based; conditions: 1 µM 11-DOC, 16 hours, aldosterone detected
T1 construct: the ORF of human CYP11B1 or CYP11B2 were transfected into G402 cells; expressed in transfected cells
T1 sequence (P19099 25-503): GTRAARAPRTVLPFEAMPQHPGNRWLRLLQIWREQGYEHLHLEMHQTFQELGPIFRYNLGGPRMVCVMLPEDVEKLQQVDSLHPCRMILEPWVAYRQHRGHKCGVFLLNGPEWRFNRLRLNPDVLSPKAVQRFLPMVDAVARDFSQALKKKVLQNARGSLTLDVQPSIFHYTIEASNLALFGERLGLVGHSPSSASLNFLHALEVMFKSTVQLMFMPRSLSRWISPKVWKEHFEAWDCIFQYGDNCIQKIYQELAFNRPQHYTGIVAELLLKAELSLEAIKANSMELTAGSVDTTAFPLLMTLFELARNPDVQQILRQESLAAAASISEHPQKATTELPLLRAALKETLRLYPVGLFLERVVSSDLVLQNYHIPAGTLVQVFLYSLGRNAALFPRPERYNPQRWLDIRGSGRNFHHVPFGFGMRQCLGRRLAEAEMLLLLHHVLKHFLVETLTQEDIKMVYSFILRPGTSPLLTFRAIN
Text: (§1) G402 cells (ATCC, CRL 1440) are epithelioid cells isolated from the kidney of a patient with renal failure and are a type of leiomyoblastoma. For the screening of highly specific CYP11B2 inhibitors, we specifically used G402 cell lines stably expressing human CYP11B2 enzyme or human CYP11B1 enzyme for experimental development.
(§2) Construction of Stably Transfected Cell Lines: Expression plasmids containing suitable promoters, suitable drug resistance markers, and the ORF of human CYP11B1 or CYP11B2 were transfected into G402 cells using standard techniques. The cells were then screened using the specific puromycin resistance marker. Monoclonal cells stably expressing human CYP11B2 were selected for expansion, and 11-deoxycorticosterone (11-DOC) was used as the specific substrate to evaluate enzyme activity based on aldosterone production. Monoclonal cells stably expressing human CYP11B1 were selected for expansion, and 11-deoxycortisol (11-DC) was used as the specific substrate, with cortisol production as the detection target for specific enzyme activity evaluation. The G402 cell lines stably expressing CYP11B1/CYP11B2 were cultured at 37 °C, 5% CO2, 95% air in complete medium (McCoy's 5A + 10% FBS + 1% PS + 0.5 µg/mL puromycin).
(§3) Enzyme Inhibition Activity Assay: CYP11B1 G402/CYP11B2 G402 cells were spread out flatly in cell culture plates. After 24 hours, the medium was changed to an enzyme testing system (DMEM/F12 + 2.5% charcoal-stripped FCS). Small molecule inhibitors at various concentrations were added. After 1 hour, appropriate concentrations of specific substrates (1 µM 11-DOC / 1 µM 11-DC) were added and co-incubated with the cells for 16 hours. Cells were then collected, and specific products were detected using LC/MS methods with an AB SCIEX TRIPLE QUAD 5500+, CTO-40S instrument (CYP11B2 enzyme detecting aldosterone; CYP11B1 enzyme detecting cortisol).
(§4) The IC50 values of the compounds were determined based on the G402 testing system. The dose-dependent inhibition of enzyme activity was calculated by plotting the added inhibitor concentration (x-axis) against the percentage of product inhibitory activity relative to the control group (y-axis) based on product formation at various compound concentrations. The following data were then fitted using the least squares method with XLfit 5.5.0 for a four-parameter logistic curve fit: [formula] • Y-axis: Percentage of product inhibitory activity relative to the control group; • logIC50: IC50 was determined using XLFit.
(§5) The maximum enzyme activity corresponds to the amount of control product steroid/aldosterone in the absence of inhibitor, set as 100%. The minimum enzyme activity corresponds to the amount of reference control product steroid/aldosterone in the presence of inhibitor. Table 3 Inhibitory Activity of the Compounds of the Present Disclosure on CYP11B2 and CYP11B1

human CYP11B1 enzyme = target: T2, human CYP11B1 enzyme (Homo sapiens, UniProt P15538); experiment: Enzyme inhibition activity assay in G402 cells stably expressing human CYP11B1 (cortisol production from 11-DC, LC/MS); type: cell-based; conditions: 1 µM 11-DC, 16 hours, cortisol detected
T2 construct: the ORF of human CYP11B1 or CYP11B2 were transfected into G402 cells; expressed in transfected cells
T2 sequence (P15538 25-503): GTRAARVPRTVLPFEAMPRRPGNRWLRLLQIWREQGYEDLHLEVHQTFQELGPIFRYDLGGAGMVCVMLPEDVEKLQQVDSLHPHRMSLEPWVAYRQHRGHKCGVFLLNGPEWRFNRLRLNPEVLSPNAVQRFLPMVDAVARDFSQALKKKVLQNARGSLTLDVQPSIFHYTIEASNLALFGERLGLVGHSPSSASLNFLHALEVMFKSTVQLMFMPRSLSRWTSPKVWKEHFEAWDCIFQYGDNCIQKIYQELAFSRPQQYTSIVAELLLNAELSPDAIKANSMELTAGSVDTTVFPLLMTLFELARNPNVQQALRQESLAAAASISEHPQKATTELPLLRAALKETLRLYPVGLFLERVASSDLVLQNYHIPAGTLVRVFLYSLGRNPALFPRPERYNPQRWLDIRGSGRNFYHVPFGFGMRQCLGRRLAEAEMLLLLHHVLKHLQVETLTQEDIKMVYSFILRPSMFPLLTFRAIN
Text: as §1, §2, §3, §4, §5

Row | Compound | IC50 (human CYP11B2 enzyme) [nM] | IC50 (human CYP11B1 enzyme) [nM]
1 | [2H]C([2H])([2H])NC(=O)N[C@@H]1CCCc2c(-c3ccc4c(ccc(=O)n4C)c3)cncc21 [Compound A15] | 9.9 | 
2 | CCC(=O)N[C@@H]1CC=Cc2c(-c3ccc4c(c3)CCC(=O)N4C)cncc21 [Compound A04-P1] | 5.6 | 244
3 | CCC(=O)N[C@@H]1CCOc2c(-c3ccc4c(c3)OCC(=O)N4C)cncc21 [Compound A19] | 35.5 | 
4 | CCC(=O)N[C@@H]1CCCc2c(-c3ccc4c(c3)CNC(=O)N4C)cncc21 [Compound C06] | 31.1 | 2400
5 | C[C@@H](F)C(=O)N[C@@H]1CCCc2c(-c3ccc4c(c3)CCC(=O)N4C)cncc21 [Compound D07-P1] | 33.9 | 
6 | CCC(=O)N[C@@H]1CCCc2c(-c3cc(Cl)c4c(ccc(=O)n4C)c3)cncc21 [Compound C42] | 11.1 | 4030
7 | COCC(=O)N[C@@H]1CCCc2c(-c3ccc4c(c3)CCC(=O)N4C)cncc21 [Compound D06] | 8.2 | 288
8 | CN1C(=O)CCc2cc(-c3cncc4c3CCC[C@H]4N3CCOC3=O)ccc21 [Compound D12] | 7.3 | 362
9 | CNC(=O)N[C@@H]1CCCc2c(-c3ccc4c(ccc(=O)n4C)c3)cncc21 [Compound A21] | 9.4 | 739
10 | CCC(=O)N[C@@H]1CCOc2c(-c3cc(F)c4c(ccc(=O)n4C)c3)cncc21 [Compound A20] | 29.1 | 
11 | [2H]C([2H])([2H])OC(=O)N[C@@H]1CCCc2c(-c3ccc4c(c3)OCC(=O)N4C)cncc21 [Compound A29] | 8.8 | 479
12 | COC(=O)N[C@@H]1CCOc2c(-c3cc(F)c4c(ccc(=O)n4C)c3)cncc21 [Compound A49] | 14.9 | 2210
13 | [2H]C([2H])([2H])NC(=O)N[C@@H]1CCOc2c(-c3ccc4c(c3)OCC(=O)N4C)cncc21 [Compound A32] | 34.7 | 
14 | CCC(=O)N[C@@H]1CCCc2c(-c3cnc4c(c3)cc(C#N)n4C)cncc21 [Compound C37] | 11.4 | 1720
15 | CCC(=O)N[C@@H]1CCCc2c(-c3ccc4c(cnn4C)c3)cncc21 [Compound C21] | 26.5 | 
16 | COC(=O)N[C@@H]1CCOc2c(-c3ccc4c(ccc(=O)n4C)c3)cncc21 [Compound A42] | 12.9 | 1700
17 | COC(=O)N[C@@H]1CCCc2c(-c3cc(Cl)c4c(ccc(=O)n4C)c3)cncc21 [Compound A51] | 4.4 | 625
18 | COC(=O)N[C@@H]1CCOc2c(-c3ccc4c(c3)CCC(=O)N4C)cncc21 [Compound A14] | 2.3 | 202
19 | CCC(=O)N[C@@H]1CCCc2c(-c3ccc4c(c3)cc(F)c(=O)n4C)cncc21 [Compound C16] | 43.3 | 
20 | COC(=O)N[C@@H]1CCCc2c(-c3ccc4c(c3)CCC(=O)N4C)cncc21 [Compound D05] | 3.4 | 
21 | CCC(=O)N[C@@H]1CCCc2c(-c3ccc4c(c3)cc(C#N)n4C)cncc21 [Compound C36] | 1.4 | 266
22 | CCC(=O)N[C@@H]1CCOc2c(-c3cc(F)c4c(c3)cc(C#N)n4C)cncc21 [Compound A55] | 4.5 | 
23 | [2H]C([2H])([2H])OC(=O)N[C@@H]1CCOc2c(-c3cc(Cl)c4c(ccc(=O)n4C)c3)cncc21 [Compound A54] | 13.6 | 1660
